The record followed here is patent US7445921B2, “Transglycosylation method and protein having transglycosylation activity” (priority 2004, dated 2008).

No end group written: not given here.

The test system of assay [1] is recombinant endo-α-GalNAc-ase. In words: Transglycosylation into polypeptide (HPLC, MALDI-TOF-MS). Type of assay: biochemical, Bifidobacterium longum JCM1217. Conditions: donor Galβ1-3GalNAcα1-pNP, sodium phosphate buffer pH 6, 37° C., one hour, HPLC product peak. How it is done: First, an enzymatic reaction of recombinant endo-α-GalNAc-ase purified in (7) was performed with Galβ1-3GalNAcα1-pNP as the sugar chain donor and peptide-T (see SEQ ID: 16), PAMP-12 (an amino acid sequence shown in SEQ ID: 17 with an amino group attached at C-end of the sequence) and bradykinin (see SEQ ID: 18) as the sugar chain acceptor.
That is, 10 μl of Galβ1-3GalNAcα1-pNP, 6 μl solution of each polypeptide as the acceptor and 1.5 μl of NaP (sodium phosphate) buffer (500 mM, pH 6) were mixed. The sugar chain donor, Galβ1-3GalNAcα1-pNP was used at a concentration of 10 mM, and for the peptide solution, each of 50 mM peptide-T, 50 mM bradykinin, and 10 mM PAMP-12 was used. A solution obtained by mixing was warmed up to 37° C., subsequently 2.5 μl of endo-α-GalNAc-ase (1.55 unit/ml) was added thereto, which was then incubated in a water bath at 37° C. for one hour. Subsequently, the enzyme was inactivated by boiling for 3 to 5 minutes.
Each reaction solution obtained in the aforementioned enzymatic reaction was applied to an HPLC analysis, and reaction products were analyzed and fractionated. […] UV (wavelength 214 nm) spectra were detected.
Detected results of each reaction solution for peptide-T, PAMP-12 and bradykinin are shown in FIGS. 5A, 5B and 5C, respectively.
The fractions fractionated by the aforementioned HPLC were analyzed by MALDI-TOF-MS. […]
Target sequence in this assay (as listed by the source): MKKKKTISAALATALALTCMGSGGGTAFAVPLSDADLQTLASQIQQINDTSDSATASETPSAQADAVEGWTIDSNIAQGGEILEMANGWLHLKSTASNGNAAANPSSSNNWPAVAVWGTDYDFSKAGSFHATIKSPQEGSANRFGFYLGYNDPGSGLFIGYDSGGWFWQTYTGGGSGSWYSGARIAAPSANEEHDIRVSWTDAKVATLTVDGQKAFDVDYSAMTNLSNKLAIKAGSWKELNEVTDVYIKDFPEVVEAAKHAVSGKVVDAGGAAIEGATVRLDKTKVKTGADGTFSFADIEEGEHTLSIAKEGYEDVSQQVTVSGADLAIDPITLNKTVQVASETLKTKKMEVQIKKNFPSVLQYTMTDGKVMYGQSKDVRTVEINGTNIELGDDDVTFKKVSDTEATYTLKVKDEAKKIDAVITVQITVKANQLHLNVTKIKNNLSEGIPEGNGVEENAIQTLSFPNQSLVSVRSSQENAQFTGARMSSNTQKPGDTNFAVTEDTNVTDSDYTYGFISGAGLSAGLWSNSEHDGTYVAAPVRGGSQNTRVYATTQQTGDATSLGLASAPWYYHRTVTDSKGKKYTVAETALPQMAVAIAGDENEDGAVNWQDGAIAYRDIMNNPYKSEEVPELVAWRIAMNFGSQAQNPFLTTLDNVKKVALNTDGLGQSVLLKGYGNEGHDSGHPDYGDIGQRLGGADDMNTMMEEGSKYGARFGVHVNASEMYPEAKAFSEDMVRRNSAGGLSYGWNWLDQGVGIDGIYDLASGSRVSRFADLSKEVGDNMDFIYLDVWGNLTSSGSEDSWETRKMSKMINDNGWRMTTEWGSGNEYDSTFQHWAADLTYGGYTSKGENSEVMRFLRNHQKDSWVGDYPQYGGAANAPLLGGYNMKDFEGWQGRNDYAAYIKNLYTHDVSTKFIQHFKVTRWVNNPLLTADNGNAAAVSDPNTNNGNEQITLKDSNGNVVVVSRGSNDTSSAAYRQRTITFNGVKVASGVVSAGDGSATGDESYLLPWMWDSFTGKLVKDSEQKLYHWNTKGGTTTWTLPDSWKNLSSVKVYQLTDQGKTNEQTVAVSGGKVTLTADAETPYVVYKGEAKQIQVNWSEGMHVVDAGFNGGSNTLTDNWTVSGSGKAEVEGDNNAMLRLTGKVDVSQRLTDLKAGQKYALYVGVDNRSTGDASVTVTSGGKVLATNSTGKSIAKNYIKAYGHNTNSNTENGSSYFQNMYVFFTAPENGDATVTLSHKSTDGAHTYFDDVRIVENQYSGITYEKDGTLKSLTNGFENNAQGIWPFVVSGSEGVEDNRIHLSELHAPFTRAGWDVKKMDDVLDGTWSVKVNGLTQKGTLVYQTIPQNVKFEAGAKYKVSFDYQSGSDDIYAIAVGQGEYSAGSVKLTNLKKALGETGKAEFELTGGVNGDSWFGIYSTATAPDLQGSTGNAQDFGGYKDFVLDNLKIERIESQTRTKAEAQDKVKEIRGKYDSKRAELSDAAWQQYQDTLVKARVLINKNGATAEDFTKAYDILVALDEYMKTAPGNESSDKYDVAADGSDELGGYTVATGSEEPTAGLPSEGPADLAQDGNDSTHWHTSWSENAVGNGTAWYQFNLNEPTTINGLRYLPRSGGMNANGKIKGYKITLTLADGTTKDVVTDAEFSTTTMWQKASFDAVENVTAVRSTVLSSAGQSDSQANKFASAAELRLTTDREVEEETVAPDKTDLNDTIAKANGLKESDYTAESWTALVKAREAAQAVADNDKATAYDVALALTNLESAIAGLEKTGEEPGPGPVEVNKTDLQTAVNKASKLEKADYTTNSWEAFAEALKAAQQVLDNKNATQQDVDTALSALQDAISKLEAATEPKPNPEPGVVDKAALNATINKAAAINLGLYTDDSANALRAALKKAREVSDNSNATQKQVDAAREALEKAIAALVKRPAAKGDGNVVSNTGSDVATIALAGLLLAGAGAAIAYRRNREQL

Assay [2] concerns recombinant endo-α-GalNAc-ase. Conditions: substance as sugar source 1.2 mM, TLC.
Protocol: The reaction system for measurement of transglycosylation activity was carried out by using the sugar chain donor Galβ1-3GalNAcα1-pNP at a final concentration of 2 mM, the acceptor 1-alkanol at a final concentration of 15% (v/v) and the purified enzyme (recombinant endo-α-GalNAc-ase) at a final concentration of 6.8 units/L in a 50 mM potassium phosphate buffer, pH 7.0.

On to “PAMP-12: amino acid sequence shown in SEQ ID: 17 with an amino group attached at C-end; sugar chain acceptor (FRKKWNKWALSR-NH2; listed as Homo sapiens)”, for which the “Transfer of disaccharide (Gal-GalNAc) to the peptide acceptor” value in assay [1] was “disaccharide (Gal-GalNAc) had been transferred”.

For `CC(=O)N[C@H]1C(O)O[C@H](CO)[C@H](O)[C@@H]1O[C@@H]1O[C@H](CO)[C@H](O)[C@H](O)[C@H]1O` (stereo partly drawn) [Galβ1-3GalNAc, galactosyl β1→3N-acetylgalactosamine], the “Formation of product spot in reaction with methanol as acceptor (transglycosylation vs reverse hydrolysis)” value in assay [2] is “not formed”.

For `CC(=O)N[C@H]1[C@@H](Oc2ccc([N+](=O)[O-])cc2)O[C@H](CO)[C@H](O)[C@@H]1O[C@@H]1O[C@H](CO)[C@H](O)[C@H](O)[C@H]1O` [Galβ1-3GalNAcα1-pNP, galactosyl β1→3N-acetylgalactosaminyl α1-p-nitrophenol, reference compound], in assay [2], the “Formation of product spot in reaction with methanol as acceptor (transglycosylation vs reverse hydrolysis)” value was “formed”.
